Data on 16 molecules can be found in PMC7732025 (Archives of pharmacal research, 2013).

A short description of series [1]: Cytotoxic assay, primary human PBM cells. The class given is cell-based. The settings on record: human, primary human PBM cells.
Series [2] in a line: Cytotoxic assay, VERO cells. The class given is cell-based. To be noted: African green monkey.
The nature of another series: in vitro. The settings on record: human, CEM cells.
A further series has as its system primary human PBM cells. In words: Cytotoxic assay, primary human PBM cells. Type of series: cell-based. The settings on record: primary human PBM cells (lymphocytes).
The test system of the next series is VERO cells. In words: Cytotoxic assay, VERO cells. Type of series: cell-based.
For another series, the system named is HIV-1. In words: Anti-HIV-1 assay in activated primary human PBM cells. The class given is cell-based, human immunodeficiency virus type 1.

As usually defined, the IC50 is the concentration at which inhibition is half-maximal.

The structures appear in SMILES notation.

As to `CC(=NNC(=O)CN1c2c(-c3ccccc3)n[nH]c2-c2ccccc2S1(=O)=O)c1ccc[nH]1` [5o, N′-(1-(1H-pyrrol-2-yl)ethylidene)-2-(5,5-dioxido-3-phenylbenzo[e]pyrazolo[4,3-c][1,2]thiazin-4(1H)-yl)acetohydrazide], the IC50 at 5 day in series [1] is 41.4 µM; in series [2] it was 22.3 µM; in the series “in vitro” it was 20 µM.

On to `CC(=NNC(=O)CN1c2c(-c3ccccc3)n[nH]c2-c2ccccc2S1(=O)=O)c1ccsc1` [5c, 2-(5,5-Dioxido-3-phenylbenzo[e]pyrazolo[4,3-c][1,2]thiazin-4(1H)-yl)-N′-(1-(thiophen-3-yl)ethylidene)acetohydrazide], for which the IC50 at 5 day in series [1] is 73.2 µM; in series [2], 78.7 µM; in “in vitro”, 10.7 µM. Moreover, the “toxicity in primary human PBM cells (in words)” value with primary human PBM cells is on record as “no toxicity”. The “toxicity in VERO cells (in words)” value in the series with VERO cells was “no toxicity”.

As for `CC(=NNC(=O)CN1c2c(-c3ccccc3)n[nH]c2-c2ccccc2S1(=O)=O)c1cc2ccccc2oc1=O` [5k, 2-(5,5-Dioxido-3-phenylbenzo[e]pyrazolo[4,3-c][1,2]thiazin-4(1H)-yl)-N′-(1-(2-oxo-2H-chromen-3-yl)ethylidene)acetohydrazide], the 50% inhibitory concentration (IC50) at 5 day was 82.7 µM in series [1], > 100 µM in series [2] and 27.8 µM in the series “in vitro”. For the same molecule, the “toxicity in primary human PBM cells (in words)” value in the series on primary human PBM cells was “non-toxic”. The “toxicity in VERO cells (in words)” value with VERO cells is recorded as “non-toxic”.

Take `O=C(CN1c2c(-c3ccccc3)n[nH]c2-c2ccccc2S1(=O)=O)NN=Cc1cccs1` [5w, 2-(5,5-Dioxido-3-phenylbenzo[e]pyrazolo[4,3-c][1,2]thiazin-4(1H)-yl)-N′-(thiophen-2-ylmethylene)acetohydrazide]: the 50% inhibitory concentration (IC50) at 5 day in series [1] was 30.6 µM; in series [2] it was 41.8 µM; in the series “in vitro”, 13.9 µM. The “toxicity in primary human PBM cells (in words)” value in the series on primary human PBM cells is “no toxicity”. The “toxicity in VERO cells (in words)” value in the series with VERO cells is “no toxicity”.

As to `CC(=NNC(=O)CN1c2c(-c3ccccc3)n[nH]c2-c2ccccc2S1(=O)=O)c1ccc(Br)s1` [5p, N′-(1-(5-bromothiophen-2-yl)ethylidene)-2-(5,5-dioxido-3-phenylbenzo[e]pyrazolo[4,3-c][1,2]thiazin-4(1H)-yl)acetohydrazide], the 50% inhibitory concentration (IC50) at 5 day in series [1] was 10.5 µM; in series [2] it was 18.1 µM; in the series “in vitro”, < 1 µM.

Take `CC(=NNC(=O)CN1c2c(-c3ccccc3)n[nH]c2-c2ccccc2S1(=O)=O)c1ccc(C)o1` [5s, 2-(5,5-Dioxido-3-phenylbenzo[e]pyrazolo[4,3-c][1,2]thiazin-4(1H)-yl)-N′-(1-(5-methylfuran-2-yl)ethylidene)acetohydrazide]: the values for the half-maximal inhibitory concentration (IC50) at 5 day (in series [1]; in series [2]; in the series “in vitro”) were 53.8 µM, > 100 µM and 15.4 µM, respectively. Further, the “anti-HIV-1 activity (in words)” value with HIV-1 is “inactive”.

For the molecule `CC(=NNC(=O)CN1c2c(-c3ccccc3)n[nH]c2-c2ccccc2S1(=O)=O)c1cc(C)sc1C` [5d, N′-(1-(2,5-dimethylthiophen-3-yl)ethylidene)-2-(5,5-dioxido-3-phenylbenzo[e]pyrazolo[4,3-c][1,2]thiazin-4(1H)-yl)acetohydrazide], the concentration for half-maximal inhibition (IC50) at 5 day in series [1] is 36.5 µM; in series [2], 44.4 µM; in “in vitro”, 17.6 µM.

Take `CC(=NNC(=O)CN1c2c(-c3ccccc3)n[nH]c2-c2ccccc2S1(=O)=O)c1sccc1Cl` [5e, N′-(1-(3-chlorothiophen-2-yl)ethylidene)-2-(5,5-dioxido-3-phenylbenzo[e]pyrazolo[4,3-c][1,2]thiazin-4(1H)-yl)acetohydrazide]: the IC50 at 5 day in series [1] was 69.1 µM; in series [2] it was > 100 µM; in the series “in vitro” it was 16.8 µM. Also, in the series with primary human PBM cells, the “toxicity in primary human PBM cells (in words)” value is reported as “non-toxic”. The “toxicity in VERO cells (in words)” value in the series with VERO cells was “non-toxic”.

Consider `CC(=NNC(=O)CN1c2c(-c3ccccc3)n[nH]c2-c2ccccc2S1(=O)=O)c1cc(C)oc1C` [5t, N′-(1-(2,5-dimethylfuran-3-yl)ethylidene)-2-(5,5-dioxido-3-phenylbenzo[e]pyrazolo[4,3-c][1,2]thiazin-4(1H)-yl)acetohydrazide], for which the results for the half-maximal inhibitory concentration (IC50) at 5 day (in series [1]; in series [2]; in the series “in vitro”) were 17.3 µM, 41.4 µM and 9.9 µM, respectively.

As to `CC(=NNC(=O)CN1c2c(-c3ccccc3)n[nH]c2-c2ccccc2S1(=O)=O)c1nccs1` [5u, 2-(5,5-Dioxido-3-phenylbenzo[e]pyrazolo[4,3-c][1,2]thiazin-4(1H)-yl)-N′-(1-(thiazol-2-yl)ethylidene)acetohydrazide], the IC50 at 5 day turned out to be 15.7 µM in series [1], 43.1 µM in series [2] and 8.2 µM in “in vitro”.

For `CC(=NNC(=O)CN1c2c(-c3ccccc3)n[nH]c2-c2ccccc2S1(=O)=O)c1sccc1Br` [5f, N′-(1-(3-bromothiophen-2-yl)ethylidene)-2-(5,5-dioxido-3-phenylbenzo[e]pyrazolo[4,3-c][1,2]thiazin-4(1H)-yl)acetohydrazide], the IC50 at 5 day in series [1] is 42.8 µM; in series [2] it was > 100 µM; in the series “in vitro”, 19.6 µM.

Consider `CC(=NNC(=O)CN1c2c(-c3ccccc3)n[nH]c2-c2ccccc2S1(=O)=O)c1ccc(C)s1` [5m, 2-(5,5-Dioxido-3-phenylbenzo[e]pyrazolo[4,3-c][1,2]thiazin-4(1H)-yl)-N′-(1-(5-methylthiophen-2-yl)ethylidene)acetohydrazide], for which the results for the concentration for half-maximal inhibition (IC50) at 5 day (in series [1]; in series [2]; in “in vitro”) were 62.3 µM, 30.6 µM and 13.8 µM, respectively.

With `CC(=NNC(=O)CN1c2c(-c3ccccc3)n[nH]c2-c2ccccc2S1(=O)=O)c1ccc2c(c1)OCCO2` [5q, N′-(1-(2,3-dihydrobenzo[b][1,4]dioxin-6-yl)ethylidene)-2-(5,5-dioxido-3-phenylbenzo[e]pyrazolo[4,3-c][1,2]thiazin-4(1H)-yl)acetohydrazide], the values for the 50% inhibitory concentration (IC50) at 5 day (in series [1]; in series [2]; in “in vitro”) were 67.1 µM, > 100 µM and 23.9 µM, respectively. The “toxicity in primary human PBM cells (in words)” value with primary human PBM cells is reported as “non-toxic”. Moreover, in the series on VERO cells, the “toxicity in VERO cells (in words)” value is given as “non-toxic”.

With `CC(=NNC(=O)CN1c2c(-c3ccccc3)n[nH]c2-c2ccccc2S1(=O)=O)c1ccc2ccccc2c1` [5l, 2-(5,5-Dioxido-3-phenylbenzo[e]pyrazolo[4,3-c][1,2]thiazin-4(1H)-yl)-N′-(1-(naphthalen-2-yl)ethylidene)acetohydrazide], the IC50 at 5 day in series [1] was 12.2 µM; in series [2] it was < 1 µM; in “in vitro”, 24.2 µM.

As for `CC(=NNC(=O)CN1c2c(-c3ccccc3)n[nH]c2-c2ccccc2S1(=O)=O)c1ccc([N+](=O)[O-])s1` [5r, 2-(5,5-Dioxido-3-phenylbenzo[e]pyrazolo[4,3-c][1,2]thiazin-4(1H)-yl)-N′-(1-(5-nitrothiophen-2-yl)ethylidene)acetohydrazide], the half-inhibitory concentration (IC50) at 5 day stood at 85 µM in series [1], 43.6 µM in series [2] and 5 µM in the series “in vitro”.

Turning to `CC(=NNC(=O)CN1c2c(-c3ccccc3)n[nH]c2-c2ccccc2S1(=O)=O)c1ccc(Cl)s1` [5g, N′-(1-(5-chlorothiophen-2-yl)ethylidene)-2-(5,5-dioxido-3-phenylbenzo[e]pyrazolo[4,3-c][1,2]thiazin-4(1H)-yl)acetohydrazide], the half-maximal inhibitory concentration (IC50) at 5 day in series [1] was determined as 13.9 µM; in series [2], 57.4 µM; in “in vitro”, 8.4 µM.
